{"source": "paper PMC8553373", "about": "(The Journal of Biological Chemistry, 2021)", "biological_target": "Nsp9COV19(C73S) as substrate of Nsp12COV19 NiRAN domain (Severe acute respiratory syndrome coronavirus 2, UniProt P0DTD1, C4213S)", "type": "biochemical, SARS-CoV-2", "data": [{"smiles": "C=C1C(=O)[C@]23[C@H](O)[C@H]1CC[C@H]2[C@@]12CO[C@]3(O)[C@@H](O)[C@@H]1C(C)(C)CC[C@@H]2O", "note": "[Compound 1, Oridonin]", "values": [{"measurement": "level of inhibition with mutant Nsp9 compared with wild-type", "result": "approximately threefold lower"}]}]}
